Measurements published in BindingDB's records for doi:10.1021/jm00153a007 (1986).

Biological target: Prostacyclin synthase (Sus scrofa)
Test: Inhibition of PGI-2 synthetase from porcine aorta

SMILES	IC50
CC(C)c1c(Cn2ccnc2)c2ccccc2n1CCC(=O)O [3-(3-Imidazol-1-ylmethyl-2-isopropyl-indol-1-yl)-propionic acid]	> 100 µM
Cc1c(Cn2ccnc2)c2ccccc2n1/C=C/C(=O)O [3-(3-Imidazol-1-ylmethyl-2-methyl-indol-1-yl)-acrylic acid]	> 100 µM
O=C(O)CCn1cc(Cn2ccnc2)c2ccc(C(F)(F)F)cc21 [3-(3-Imidazol-1-ylmethyl-6-trifluoromethyl-indol-1-yl)-propionic acid]	> 100 µM

Other lines, results leading:

IC50	SMILES
> 100 µM	O=C(O)CCn1cc(Cn2ccnc2)c2cc(Br)ccc21 [3-(5-Bromo-3-imidazol-1-ylmethyl-indol-1-yl)-propionic acid]
> 100 µM	O=C(O)CCn1cc(Cn2ccnc2)c2cc(Cl)ccc21 [3-(5-Chloro-3-imidazol-1-ylmethyl-indol-1-yl)-propionic acid]
> 100 µM	CN(C)c1ccc2c(c1)c(Cn1ccnc1)cn2CCC(=O)O [3-(5-Dimethylamino-3-imidazol-1-ylmethyl-indol-1-yl)-propionic acid]
